Results published in the NIST ThermoML archive (doi:10.1016/j.jct.2010.11.017).

Assay: wn = mass fraction of the nth substance listed
Conditions: 101 kPa, Liquid; for viscosity: Capillary tube (Ostwald / Ubbelohde) method; for speed of sound: Frequency=3 MHz, Linear variable-path acoustic interferometer; for mass density: Pycnometric method

O=C[C@H](O)[C@@H](O)[C@H](O)[C@H](O)CO [D-glucose] + O
Conditions | mass density [kg/m3] | speed of sound [m/s] | viscosity [mPa·s]
293.15 K, w1 = 0.05 | 1016.28 | – | 1.176
293.15 K, w1 = 0.1 | 1034.79 | 1521.4 | 1.357
293.15 K, w1 = 0.15 | 1053.29 | 1532.4 | 1.541
293.15 K, w1 = 0.2 | 1072.41 | 1543.2 | 1.877
298.15 K, w1 = 0.05 | 1014.69 | 1514.3 | 0.9767
298.15 K, w1 = 0.1 | 1033.15 | 1530.6 | 1.12
298.15 K, w1 = 0.15 | 1051.61 | 1542.5 | 1.316
298.15 K, w1 = 0.2 | 1070.31 | 1553.3 | 1.67
303.15 K, w1 = 0.05 | 1013.08 | 1525.1 | 0.8605
303.15 K, w1 = 0.1 | 1031.5 | 1540.3 | 0.9907
303.15 K, w1 = 0.15 | 1049.92 | 1551.5 | 1.147
303.15 K, w1 = 0.2 | 1068.17 | 1563.1 | 1.491
308.15 K, w1 = 0.05 | 1011.47 | 1535.7 | 0.7697
308.15 K, w1 = 0.1 | 1029.84 | 1550.2 | 0.8844
308.15 K, w1 = 0.15 | 1048.37 | 1560.5 | 1.018
308.15 K, w1 = 0.2 | 1065.97 | 1573.5 | 1.345
313.15 K, w1 = 0.05 | 1009.85 | 1545.6 | 0.6945
313.15 K, w1 = 0.1 | 1028.17 | 1559.9 | 0.7901
313.15 K, w1 = 0.15 | 1046.62 | 1569.6 | 0.8925
313.15 K, w1 = 0.2 | 1063.76 | 1582.2 | 1.21
318.15 K, w1 = 0.05 | – | 1554.5 | 0.6334
318.15 K, w1 = 0.1 | 1026.48 | 1568.4 | 0.7223
318.15 K, w1 = 0.15 | 1044.93 | 1577.2 | 0.8097
318.15 K, w1 = 0.2 | 1061.52 | 1591.2 | 1.112
